Experimental data taken from ChEMBL document CHEMBL1131216, “Anhydrolide macrolides. 2. Synthesis and antibacterial activity of 2,3-anhydro-6-O-methyl 11,12-carbazate erythromycin A analogues” (1998).
Values after ≈ are worked out from the molar mass of the structure shown.

Assays:
Assay type in all cases: functional
Streptococcus pneumoniae [1] = test: In vitro antibacterial activity of 5649 strain of Gram positive bacteria Streptococcus pneumoniae
Streptococcus pneumoniae [2] = test: In vitro antibacterial activity of ATCC 6303 strain of Gram positive bacteria Streptococcus pneumoniae
Streptococcus pyogenes [3] = test: In vitro antibacterial activity of PIU2584 strain of Gram positive bacteria Streptococcus pyogenes
Staphylococcus aureus [4] = test: In vivo antibacterial activity of NCTC-10649 strain of Gram positive bacteria Staphylococcus aureus (95% confidence interval)
Streptococcus pyogenes [5] = test: In vitro antibacterial activity of 930 strain of Gram positive bacteria Streptococcus pyogenes
Streptococcus pyogenes [6] = test: In vitro antibacterial activity of EES61 strain of Gram positive bacteria Streptococcus pyogenes
Streptococcus pneumoniae [7] = test: In vitro antibacterial activity of 5979 strain of Gram positive bacteria Streptococcus pneumoniae
Staphylococcus aureus [8] = test: In vitro antibacterial activity of A5177 strain of Gram positive bacteria Staphylococcus aureus
Staphylococcus aureus [9] = test: In vitro antibacterial activity of A-5278 strain of Gram positive bacteria Staphylococcus aureus
Streptococcus pneumoniae [10] = test: In vivo antibacterial activity of ATCC 6303 strain of Gram positive bacteria Streptococcus pneumoniae (95% confidence interval)
Streptococcus pneumoniae [11] = test: In vivo antibacterial activity of ATCC 6303 strain of Gram positive bacteria Streptococcus pneumoniae
Haemophilus influenzae = test: In vitro antibacterial activity of DILL strain of Gram negative bacteria Haemophilus influenzae
Staphylococcus aureus [12] = test: In vivo antibacterial activity of NCTC-10649 strain of Gram positive bacteria Staphylococcus aureus
Staphylococcus aureus [13] = test: In vitro antibacterial activity of 6538P strain of Gram positive bacteria Staphylococcus aureus

| Compound | MIC (Streptococcus pneumoniae [1]) [µg/mL] | MIC (Streptococcus pneumoniae [2]) [µg/mL] | MIC (Streptococcus pyogenes [3]) [µg/mL] | ED50 (Staphylococcus aureus [4]) [mg/kg/day] | MIC (Streptococcus pyogenes [5]) [µg/mL] | MIC (Streptococcus pyogenes [6]) [µg/mL] | MIC (Streptococcus pneumoniae [7]) [µg/mL] | MIC (Staphylococcus aureus [8]) [µg/mL] | MIC (Staphylococcus aureus [9]) [µg/mL] | ED50 (Streptococcus pneumoniae [10]) [mg/kg/day] | MIC (Streptococcus pneumoniae [11]) [µg/mL] | MIC (Haemophilus influenzae) [µg/mL] | MIC (Staphylococcus aureus [12]) [µg/mL] | MIC (Staphylococcus aureus [13]) [µg/mL] |
| --- | --- | --- | --- | --- | --- | --- | --- | --- | --- | --- | --- | --- | --- | --- |
| CC[C@H]1OC(=O)/C(C)=C/[C@H](C)[C@@H](O[C@@H]2O[C@H](C)C[C@H](N(C)C)[C@H]2O)[C@@](C)(OC)C[C@@H](C)C(=O)[C@H](C)[C@H]2N(NC/C=C/c3ccc(N)cc3)C(=O)O[C@]12C | 1 (≈ 1.35 µM) | 0.03 (≈ 0.0404 µM) | 1 (≈ 1.35 µM) | 39.9 | > 128 | 0.03 (≈ 0.0404 µM) | > 128 | 0.2 (≈ 0.269 µM) | > 100 | 9.9 | 0.03 (≈ 0.0404 µM) | 2 (≈ 2.69 µM) | 0.2 (≈ 0.269 µM) | 0.2 (≈ 0.269 µM) |
| CC[C@H]1OC(=O)/C(C)=C/[C@H](C)[C@@H](O[C@@H]2O[C@H](C)C[C@H](N(C)C)[C@H]2O)[C@@](C)(OC)C[C@@H](C)C(=O)[C@H](C)[C@H]2N(NC/C=C/c3ccc([N+](=O)[O-])cc3)C(=O)O[C@]12C | 1 (≈ 1.29 µM) | 0.03 (≈ 0.0388 µM) | 1 (≈ 1.29 µM) | 50.1 | 32 (≈ 41.4 µM) | 0.06 (≈ 0.0776 µM) | 64 (≈ 82.8 µM) | 0.2 (≈ 0.259 µM) | 100 (≈ 129 µM) | 16.8 | 0.004 (≈ 0.00518 µM) | 8 (≈ 10.4 µM) | 0.2 (≈ 0.259 µM) | 0.2 (≈ 0.259 µM) |
| CC[C@H]1OC(=O)[C@H](C)[C@@H](O[C@H]2C[C@@](C)(OC)[C@@H](O)[C@H](C)O2)[C@H](C)[C@@H](O[C@@H]2O[C@H](C)C[C@H](N(C)C)[C@H]2O)[C@](C)(OC)C[C@@H](C)C(=O)[C@H](C)[C@@H](O)[C@]1(C)O [CLARITHROMYCIN] |  |  |  | 22.4 |  |  |  |  |  | 27.2 | 0.03 (≈ 0.0401 µM) |  | 0.39 (≈ 0.521 µM) |  |
| CC[C@H]1OC(=O)/C(C)=C/[C@H](C)[C@@H](O[C@@H]2O[C@H](C)C[C@H](N(C)C)[C@H]2O)[C@@](C)(OC)C[C@@H](C)C(=O)[C@H](C)[C@H]2N(NCc3ccc(N(C)C)c4ccccc34)C(=O)O[C@]12C | 2 (≈ 2.52 µM) | 0.5 (≈ 0.629 µM) | 2 (≈ 2.52 µM) |  | 16 (≈ 20.1 µM) | 0.25 (≈ 0.314 µM) | 32 (≈ 40.3 µM) | 3.1 (≈ 3.9 µM) | 100 (≈ 126 µM) |  |  | 16 (≈ 20.1 µM) |  | 3.1 (≈ 3.9 µM) |
| CC[C@H]1OC(=O)/C(C)=C/[C@H](C)[C@@H](O[C@@H]2O[C@H](C)C[C@H](N(C)C)[C@H]2O)[C@@](C)(OC)C[C@@H](C)C(=O)[C@H](C)[C@H]2N(NCCCc3ccc(NC(C)=O)cc3)C(=O)O[C@]12C | 2 (≈ 2.54 µM) | 0.06 (≈ 0.0762 µM) | 2 (≈ 2.54 µM) |  | > 128 | 0.06 (≈ 0.0762 µM) | > 128 | 0.39 (≈ 0.496 µM) | > 100 |  |  | 8 (≈ 10.2 µM) |  | 0.39 (≈ 0.496 µM) |
| CC[C@H]1OC(=O)/C(C)=C/[C@H](C)[C@@H](O[C@@H]2O[C@H](C)C[C@H](N(C)C)[C@H]2O)[C@@](C)(OC)C[C@@H](C)C(=O)[C@H](C)[C@H]2N(NCCCc3ccc(F)cc3)C(=O)O[C@]12C | 1 (≈ 1.34 µM) | 0.06 (≈ 0.0802 µM) | 1 (≈ 1.34 µM) |  | 64 (≈ 85.6 µM) | 0.03 (≈ 0.0401 µM) | 64 (≈ 85.6 µM) | 0.2 (≈ 0.267 µM) | 50 (≈ 66.8 µM) |  |  | 16 (≈ 21.4 µM) |  | 0.39 (≈ 0.521 µM) |
